B1: C5α: neutrophil chemoattractant C5a (protein, UniProt P01031 678-751, looked up)
C5a anaphylatoxin: TLQKKIEEIAAKYKHSVVKKCCYDGACVNNDETCEQRAARISLGPRCIKAFTECCVVASQLRANISHKDMQLGR
modifications: C5a anaphylatoxin
notes: neutrophil chemoattractant C5a
B2: Rantes: C-C peptide of the platelet factor 4 superfamily (protein)
chain: SPYSSDTTPCCFAYIARPLPRAHIKEYFYTSGKCSNPAVVFVTRKNRQVCANPEKKWVREYINSLEMS
B3: NAP-2: neutrophil activating protein-2, C-X-C family member (protein, UniProt P02775 59-128, looked up)
Neutrophil-activating peptide …: AELRCMCIKTTSGIHPKNIQSLEVIGKGTHCNQVEVIATLKDGRKICLDPDAPRIKKIVQKKLAGDESAD
modifications: Neutrophil-activating peptide 2

How the values were obtained:
IL8R-A = settings: Holmes et al., cited from earlier work
[1] = tested on: human IL-8 receptor (clone pRK5B.il8r1.1); assay: Flow cytometry intracellular Ca++ response of 293 cells transfected with IL-8 receptor; type: cell-based
Protocol: (§1) After two days, the cells were loaded with 2 μM indo-1 acetoxymethyl ester in RPMI medium (Sigma) for 30 min at 37° C. Intracellular Ca^++ was measured with a Coulter 753 flow cytometer using the ratio of 405 and 525 nm fluorescence. Grynkiewicz et al., J. Biol. Chem., 260: 3440-3450 (1985).
(§2) No response is found to fMLP. […] Oppenheim et al., supra.

human fMLP receptor = assay: Flow cytometry intracellular Ca++ response of 293 cells transfected with fMLP receptor; type: cell-based; settings: 293 cells transfected with human fMLP receptor
Protocol: as §1
(§3) Oppenheim et al., supra; Korchak et al., J. Biol Chem., 259: 4076-4082 (1984). […] Oppenheim et al., supra.

expressed IL-8 receptor = tested on: expressed IL-8 receptor
Text: as §3

[2] = tested on: IL-8 receptor (clone pRK5B.il8r1.1) on transfected COS cells; assay: 125I-IL-8 binding competition on transfected COS cells; set-up: species or system human; settings: COS cells transfected with clone pRK5B.il8r1.1
Protocol: Samanta et al., supra, Besemer et al., supra, Grob et al., supra.
Binding competition was performed with electroporated COS-7 cells after 1 day of expression in 6-well dishes (about 175,000 cells/dish). […] Wells were then washed, the cells harvested with trypsin, and counted. […] Neutrophil binding was performed as described (Pacholczyk et al., supra) but for 2 hr at 4° C.

[3] = tested on: receptor of FIG. 2 (IL-8 receptor); assay: MGSA binding to the receptor of FIG. 2; set-up: species or system human
Text: Murphy and Tiffany, supra, describe a receptor having a high degree of homology to the receptor of FIG. 2. […] This could be readily accomplished by routine screening methods. […] On the other hand, antibodies that can discriminate between the FIG. 2 and Murphy and Tiffany receptors and bind only to one or the other are useful in diagnosis. The receptor of FIG. 2 binds MGSA poorly, in contrast to the Murphy and Tiffany receptor.

[4] = tested on: receptor of FIG. 5 (8rr.9); assay: Response of recombinant cells bearing the FIG. 5 receptor to PF4 superfamily ligands; type: cell-based, human; settings: preliminary experiments
IL8R-B = settings: background, Murphy and Tiffany; read-out: affinity of IL8R-B for ligand; cited from earlier work
[5] = tested on: receptor of FIG. 4 (8rr.20.15); assay: Response of recombinant cells bearing the FIG. 4 receptor to PF4 superfamily ligands; type: cell-based, human; settings: preliminary experiments
human neutrophils = assay: Inhibition of 125I-IL-8 binding to human neutrophils; settings: 475 pM of MGSA, no antibody
Text: Cells were washed twice in the HBSS medium and resuspended to be 1×10^6 cells/ml.

[6] = molecular target: Murphy and Tiffany receptor; assay: Ligand affinity of the Murphy and Tiffany receptor (studies herein); type: binding, human
Text: Murphy and Tiffany, supra, describe a receptor having a high degree of homology to the receptor of FIG. 2. […] This could be readily accomplished by routine screening methods.

[7] = tested on: expressed human fMLP receptor; assay: 125I-IL-8 binding to the expressed human fMLP receptor
Text: as §2

Row | Molecule | recognition of ligand by IL8R-A (IL8R-A) | response of recombinant cells bearing the receptor [4] | response of recombinant cells bearing the receptor [5] | further results
1 | MCAF: macrophage chemotactic and activating factor, C-C peptide | does not recognize |  |  | 
2 | TNF-α | does not recognize |  |  | 
3 | CSCC[C@H](NC=O)C(=O)N[C@@H](CC(C)C)C(=O)N[C@@H](Cc1ccccc1)C(=O)O [fMLP, f-Met-Leu-Phe, reference compound] | does not recognize |  |  | intracellular Ca++ response [1]: No response; intracellular Ca++ response (human fMLP receptor): respond; binding of 3H-fMLP to the expressed IL-8 receptor (expressed IL-8 receptor): failed to detect any binding; competition of 125I-IL-8 binding [2]: no competition
4 | MGSA: NAP-3 (melanoma growth-stimulating activity [MGSA]/gro), C-X-C member of the PF4 superfamily | does recognize | do not respond | do not respond | binding of MGSA [3]: poorly; Kd (IL8R-B): 2 nM; inhibition of IL-8 binding to human neutrophils by MGSA (human neutrophils): approximately 50%; Kd ([6]; read-out: affinity for MGSA): 1 to 10 nM
5 | IL-8: Purified human 72 amino acid IL-8 made in E. coli |  | do not respond | do not respond | Kd (IL8R-A; background, read-out: affinity of IL8R-A for ligand): 2 nM; binding of 125I-IL-8 to the expressed human fMLP receptor [7]: failed to detect any binding; intracellular Ca++ response [1]: clear transient increase; intracellular Ca++ response (human fMLP receptor): not; Kd (IL8R-B): 2 nM; IL-8 affinity compared with the receptor of FIG. 2 [6]: as high or higher
6 | MCP1: PF4 superfamily ligand tested on cells bearing the FIG. 4 and 5 receptors |  | do not respond | do not respond | 
7 | CCCCC/C=C\C[C@@H](O)/C=C/C=C/C=C\[C@@H](O)CCCC(=O)O [LTB4, reference compound] | does not recognize |  |  | 
8 | B1 | does not recognize |  |  | 
9 | B2 |  | do not respond | do not respond | 
10 | B3 | does recognize |  |  | 
